# Molecular target: human TREK-1 (Homo sapiens (Human), UniProt O95069)
# Experiment: TREK-1 Thallium (Tl+) flux assay
# Assay type: cell-based
# Conditions: CHO-K1 cells stably expressing human TREK-1
# Sequence of human TREK-1 (O95069 whole entry): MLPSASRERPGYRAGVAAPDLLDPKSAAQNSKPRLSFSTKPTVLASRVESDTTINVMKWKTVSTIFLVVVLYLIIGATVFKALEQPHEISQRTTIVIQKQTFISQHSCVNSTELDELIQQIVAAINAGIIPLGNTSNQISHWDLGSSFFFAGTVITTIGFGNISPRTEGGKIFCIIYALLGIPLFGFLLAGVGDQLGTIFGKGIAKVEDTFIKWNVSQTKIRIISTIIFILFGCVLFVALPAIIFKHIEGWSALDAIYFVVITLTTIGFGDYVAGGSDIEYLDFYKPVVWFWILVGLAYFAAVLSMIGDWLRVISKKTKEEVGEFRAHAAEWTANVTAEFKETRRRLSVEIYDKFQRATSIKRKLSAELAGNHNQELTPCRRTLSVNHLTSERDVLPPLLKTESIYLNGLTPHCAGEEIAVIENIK
row,IC50 [nM],Structure (SMILES)
1,370,"Cc1cc(C#Cc2ccccn2)cnc1NC(=O)c1cc(NC(=O)OC(C)(C)C)ccc1Cl [Compound 15, tert-butyl N-[4-chloro-3-[[3-methyl-5-[2-(2-pyridyl)ethynyl]-2-pyridyl]carbamoyl]phenyl]carbamate]"
2,180,"Cc1cc(C#Cc2ccccc2)cnc1NC(=O)c1cc(C(=O)NC(C)(C)CO)ccc1Cl [Compound 17, 4-chloro-N1-(2-hydroxy-1,1-dimethyl-ethyl)-N3-[3-methyl-5-(2-phenylethynyl)-2-pyridyl]benzene-1,3-dicarboxamide]"
3,100,"Cc1cc(C#Cc2ccccc2)cnc1NC(=O)c1cc(NC(=O)[C@H]2C[C@@H]2C)ccc1Cl [Compound 27, 2-chloro-5-[[(1S,2S)-2-methylcyclopropanecarbonyl]amino]-N-[3-methyl-5-(2-phenylethynyl)-2-pyridyl]benzamide]"
4,140,"Cc1cc(C#Cc2ccccc2)cnc1NC(=O)c1cc(NC(=O)OC(C)(C)C)ccc1Cl [Compound 28, tert-butyl N-[4-chloro-3-[[3-methyl-5-(2-phenylethynyl)-2-pyridyl]carbamoyl]phenyl]carbamate]"
5,360,"Cc1cc(C#Cc2ccccc2)cnc1NC(=O)c1c(Cl)ccc(NC(=O)OC(C)(C)C)c1F [Compound 34, tert-butyl N-[4-chloro-2-fluoro-3-[[3-methyl-5-(2-phenylethynyl)-2-pyridyl]carbamoyl]phenyl]carbamate]"
6,400,"Cc1cc(C#Cc2ccccc2)cnc1NC(=O)c1cc(NC(=O)OC(C)(C)C)cc(F)c1Cl [Compound 35, tert-butyl N-[4-chloro-3-fluoro-5-[[3-methyl-5-(2-phenylethynyl)-2-pyridyl]carbamoyl]phenyl]carbamate]"
7,420,"Cc1cc(C#Cc2ccccc2)cnc1NC(=O)c1cc(NC(=O)[C@@H]2C[C@H]2C)ccc1Cl [Compound 36, 2-chloro-5-[[(1R,2R)-2-methylcyclopropanecarbonyl]amino]-N-[3-methyl-5-(2-phenylethynyl)-2-pyridyl]benzamide]"
8,440,"CC(C)(C)OC(=O)Nc1ccc(Cl)c(C(=O)Nc2ncc(C#Cc3ccccc3)cc2F)n1 [Compound 38, tert-butyl N-[5-chloro-6-[[3-fluoro-5-(2-phenylethynyl)-2-pyridyl]carbamoyl]-2-pyridyl]carbamate]"
9,470,"Cc1cc(C#Cc2cnccn2)cnc1NC(=O)c1cc(NC(=O)OC(C)(C)C)ccc1Cl [Compound 39, tert-butyl N-[4-chloro-3-[[3-methyl-5-(2-pyrazin-2-ylethynyl)-2-pyridyl]carbamoyl]phenyl]carbamate]"
10,470,"CC(C)(C)OC(=O)Nc1ccc(Cl)c(C(=O)Nc2c(F)cc(C#Cc3ccccc3)nc2F)c1 [Compound 40, tert-butyl N-[4-chloro-3-[[2,4-difluoro-6-(2-phenylethynyl)-3-pyridyl]carbamoyl]phenyl]carbamate]"
11,530,"Cc1cc(C#Cc2cccnc2)cnc1NC(=O)c1cc(NC(=O)OC(C)(C)C)ccc1Cl [Compound 41, tert-butyl N-[4-chloro-3-[[3-methyl-5-[2-(3-pyridyl)ethynyl]-2-pyridyl]carbamoyl]phenyl]carbamate]"
12,540,"Cc1cc(C#Cc2ccccc2F)cnc1NC(=O)c1cc(NC(=O)OC(C)(C)C)ccc1Cl [Compound 42, tert-butyl N-[4-chloro-3-[[5-[2-(2-fluorophenyl)ethynyl]-3-methyl-2-pyridyl]carbamoyl]phenyl]carbamate]"

# More lines, now with the values behind:
row,Structure (SMILES),IC50 [nM]
1,"C[C@H]1C[C@@H]1C(=O)Nc1ccc(Cl)c(C(=O)Nc2ncc(C#Cc3ccccc3)cc2F)c1 [Compound 2, 2-chloro-N-[3-fluoro-5-(2-phenylethynyl)-2-pyridyl]-5-[[(1S,2S)-2-methylcyclopropanecarbonyl]amino]benzamide]",90
2,"CC1CC1C(=O)Nc1ccc(Cl)c(C(=O)Nc2ncc(C#Cc3ccccc3)cc2F)c1 (stereo not drawn) [Compound 3, 2-chloro-N-[3-fluoro-5-(2-phenylethynyl)-2-pyridyl]-5-[(2-methylcyclopropanecarbonyl)amino]benzamide]",70
3,"C[C@H]1C[C@@H]1C(=O)Nc1ccc(Cl)c(C(=O)Nc2ncc(C#Cc3cccc(F)c3)cc2F)c1 [Compound 4, 2-chloro-N-[3-fluoro-5-[2-(3-fluorophenyl)ethynyl]-2-pyridyl]-5-[[(1S,2S)-2-methylcyclopropanecarbonyl]amino]benzamide]",130
4,"O=C(Nc1ncc(C#Cc2ccccc2)cc1F)c1cc(NC(=O)C2(F)CC2)ccc1Cl [Compound 6, 2-chloro-5-[(1-fluorocyclopropanecarbonyl)amino]-N-[3-fluoro-5-(2-phenylethynyl)-2-pyridyl]benzamide]",170
5,"O=C(Nc1ncc(C#Cc2ccc(F)cc2)cc1F)c1cc(NC(=O)C2CC2)ccc1Cl [Compound 7, 2-chloro-5-(cyclopropanecarbonylamino)-N-[3-fluoro-5-[2-(4-fluorophenyl)ethynyl]-2-pyridyl]benzamide]",150
6,"Cc1cc(C#Cc2ccccc2)cnc1NC(=O)c1cc(NC(=O)C2CC2)ccc1Cl [Compound 9, 2-chloro-5-(cyclopropanecarbonylamino)-N-[3-methyl-5-(2-phenylethynyl)-2-pyridyl]benzamide]",180
7,"O=C(Nc1ncc(C#Cc2ccccc2)cc1F)c1cc(NC(=O)C2COCCO2)ccc1Cl (stereo not drawn) [Compound 10, N-[4-chloro-3-[[3-fluoro-5-(2-phenylethynyl)-2-pyridyl]carbamoyl]phenyl]-1,4-dioxane-2-carboxamide]",200
8,"Cc1cc(C#Cc2ccc(F)cc2)cnc1NC(=O)c1cc(NC(=O)C2CCO2)ccc1Cl (stereo not drawn) [Compound 12, N-[4-chloro-3-[[5-[2-(4-fluorophenyl)ethynyl]-3-methyl-2-pyridyl]carbamoyl]phenyl]oxetane-2-carboxamide]",310
9,"Cc1cc(C#Cc2cccc(F)c2)cnc1NC(=O)c1cc(NC(=O)C2COCCO2)ccc1Cl (stereo not drawn) [Compound 13, N-[4-chloro-3-[[5-[2-(3-fluorophenyl)ethynyl]-3-methyl-2-pyridyl]carbamoyl]phenyl]-1,4-dioxane-2-carboxamide]",280
10,"Cc1cc(C#Cc2ccc(F)cc2)cnc1NC(=O)c1cc(NC(=O)C2COCCO2)ccc1Cl (stereo not drawn) [Compound 14, N-[4-chloro-3-[[5-[2-(4-fluorophenyl)ethynyl]-3-methyl-2-pyridyl]carbamoyl]phenyl]-1,4-dioxane-2-carboxamide]",230
11,"Cc1cc(C#Cc2ccccc2)cnc1NC(=O)c1cc(C(=O)N2CC(F)(F)C2)ccc1Cl [Compound 16, 2-chloro-5-(3,3-difluoroazetidine-1-carbonyl)-N-[3-methyl-5-(2-phenylethynyl)-2-pyridyl]benzamide]",320
12,"Cc1cc(C#Cc2cccc(F)c2)cnc1NC(=O)c1cc(C(=O)N2CC(C)(O)C2)ccc1Cl [Compound 18, 2-chloro-N-[5-[2-(3-fluorophenyl)ethynyl]-3-methyl-2-pyridyl]-5-(3-hydroxy-3-methyl-azetidine-1-carbonyl)benzamide]",240
13,"Cc1cc(C#Cc2ccccc2)cnc1NC(=O)c1cc(-c2noc(C3CCOC3)n2)ccc1Cl (stereo not drawn) [Compound 19, 2-chloro-N-[3-methyl-5-(2-phenylethynyl)-2-pyridyl]-5-(5-tetrahydrofuran-3-yl-1,2,4-oxadiazol-3-yl)benzamide]",50
14,"Cc1cc(C#Cc2ccccc2)cnc1NC(=O)c1cc(OCC2CCOCC2)ccc1Cl [Compound 20, 2-chloro-N-[3-methyl-5-(2-phenylethynyl)-2-pyridyl]-5-(tetrahydropyran-4-ylmethoxy)benzamide]",90
15,"Cc1cc(C#Cc2ccccc2)cnc1NC(=O)c1cc(OC[C@H]2COCCO2)ccc1Cl [Compound 21, 2-chloro-5-[[(2R)-1,4-dioxan-2-yl]methoxy]-N-[3-methyl-5-(2-phenylethynyl)-2-pyridyl]benzamide]",110
16,"Cc1cc(C#Cc2ccccc2)cnc1NC(=O)c1cc(OCC2COCCO2)ccc1Cl (stereo not drawn) [Compound 22, 2-chloro-5-(1,4-dioxan-2-ylmethoxy)-N-[3-methyl-5-(2-phenylethynyl)-2-pyridyl]benzamide]",130
17,"Cc1cc(C#Cc2ccccc2)cnc1NC(=O)c1cc(OC[C@@H]2COCCO2)ccc1Cl [Compound 23, 2-chloro-5-[[(2S)-1,4-dioxan-2-yl]methoxy]-N-[3-methyl-5-(2-phenylethynyl)-2-pyridyl]benzamide]",210
18,"COCCOc1ccc(Cl)c(C(=O)Nc2ncc(C#Cc3ccccc3)cc2C)c1 [Compound 24, 2-chloro-5-(2-methoxyethoxy)-N-[3-methyl-5-(2-phenylethynyl)-2-pyridyl]benzamide]",230
19,"Cc1cc(OCc2ccccc2)ccc1NC(=O)c1cc(NC(=O)OC(C)(C)C)ccc1Cl [Compound 25, tert-butyl (3-((4-(benzyloxy)-2-methylphenyl)carbamoyl)-4-chlorophenyl)carbamate]",460
20,"Cc1cc(COc2ccccc2)ccc1NC(=O)c1cc(NC(=O)OC(C)(C)C)ccc1Cl [Compound 26, tert-butyl (4-chloro-3-((2-methyl-4-(phenoxymethyl)phenyl)carbamoyl)phenyl)carbamate]",670
21,"Cc1cc(C#Cc2ccccc2)cnc1NC(=O)c1cc(NC(=O)C2COCCO2)ccc1Cl (stereo not drawn) [Compound 31, N-[4-chloro-3-[[3-methyl-5-(2-phenylethynyl)-2-pyridyl]carbamoyl]phenyl]-1,4-dioxane-2-carboxamide]",260
22,"Cc1cc(C#Cc2ccccc2)cnc1NC(=O)c1cc(NC(=O)C2CC(C)(O)C2)ccc1Cl (stereo not drawn) [Compound 32, 2-chloro-5-[(3-hydroxy-3-methyl-cyclobutanecarbonyl)amino]-N-[3-methyl-5-(2-phenylethynyl)-2-pyridyl]benzamide]",280
23,"Cc1cc(C#Cc2ccccc2)cnc1NC(=O)c1nc(NC(=O)C2CC2C)ccc1Cl (stereo not drawn) [Compound 33, 3-chloro-6-[(2-methylcyclopropanecarbonyl)amino]-N-[3-methyl-5-(2-phenylethynyl)-2-pyridyl]pyridine-2-carboxamide]",290
24,"Cc1cc(C#Cc2ccccc2)cnc1NC(=O)c1nc(NC(=O)OC(C)(C)C)ccc1Cl [Compound 43, tert-butyl N-[5-chloro-6-[[3-methyl-5-(2-phenylethynyl)-2-pyridyl]carbamoyl]-2-pyridyl]carbamate]",550
